Data: ChEMBL document CHEMBL2375251, “Anticancer activity of novel hybrid molecules containing 5-benzylidene thiazolidine-2,4-dione” (Eur J Med Chem, 2013)

Experiments:
Type in all cases: functional, cell-based
HeLa = test: Cytotoxicity against human HeLa cells after 4 days by Coulter counter analysis; settings: 96 h
CCRF-CEM = test: Cytotoxicity against human CEM cells after 3 days by Coulter counter analysis; settings: 72 h
FM3A = test: Cytotoxicity against mouse FM3A cells after 2 days by Coulter counter analysis; settings: 48 h
L1210 = test: Cytotoxicity against mouse L1210 cells after 2 days by Coulter counter analysis; settings: L1210, 48 h

Row | Structure (SMILES) | IC50 (HeLa) | IC50 (CCRF-CEM) | IC50 (FM3A) | IC50 (L1210)
1 | Nc1ccc(/C=C2\SC(=O)N(Cc3cccc(F)c3)C2=O)cc1 | 250 µM | 116 µM | 121 µM | 100 µM
2 | Nc1cccc(/C=C2\SC(=O)N(Cc3ccc(Cl)cc3)C2=O)c1 | > 250 µM | > 250 µM | 246 µM | 218 µM
3 | C=C(Br)C(=O)Nc1ccc(/C=C2\SC(=O)N(Cc3ccc(C)cc3)C2=O)cc1 | 8.9 µM | 3.7 µM | 6.1 µM | 3.4 µM
4 | CC(C)(C)c1ccc(CN2C(=O)S/C(=C\c3cccc(N)c3)C2=O)cc1 | 145 µM | 165 µM | 188 µM | 223 µM
5 | Nc1ccc(/C=C2\SC(=O)N(Cc3cccc(Cl)c3)C2=O)cc1 | 24 µM | 18 µM | 10 µM | 4.7 µM
6 | C=C(Br)C(=O)Nc1ccc(/C=C2\SC(=O)N(Cc3ccc(F)cc3)C2=O)cc1 | 2 µM | 2.4 µM | 4.6 µM | 2.2 µM
7 | Nc1cccc(/C=C2\SC(=O)N(Cc3ccccc3)C2=O)c1 | > 250 µM | > 250 µM | > 250 µM | 233 µM
8 | Nc1cccc(/C=C2\SC(=O)N(Cc3cccc(F)c3)C2=O)c1 | > 250 µM | 250 µM | > 250 µM | 199 µM
9 | C=C(Br)C(=O)Nc1ccc(/C=C2\SC(=O)N(Cc3ccc(Cl)cc3)C2=O)cc1 | 2.3 µM | 2.8 µM | 5.1 µM | 3.4 µM
10 | C=C(Br)C(=O)Nc1ccc(/C=C2\SC(=O)N(Cc3cccc(F)c3)C2=O)cc1 | 5.9 µM | 3.2 µM | 4 µM | 1.2 µM
11 | Nc1ccc(/C=C2\SC(=O)N(Cc3ccc(F)cc3)C2=O)cc1 | 186 µM | 111 µM | 36 µM | 24 µM
12 | C=C(Br)C(=O)Nc1ccc(/C=C2\SC(=O)N(CCc3ccccc3)C2=O)cc1 | 4.5 µM | 4.2 µM | 5.5 µM | 2.9 µM
13 | C=C(Br)C(=O)Nc1ccc(/C=C2\SC(=O)N(Cc3ccc(C(F)(F)F)cc3)C2=O)cc1 | 13 µM | 8 µM | 23 µM | 12 µM
14 | CN1C(=O)S/C(=C\c2ccc(N)cc2)C1=O | 97 µM | 62 µM | 107 µM | 99 µM
15 | C=C(Br)C(=O)Nc1cccc(/C=C2\SC(=O)N(Cc3ccc(Cl)cc3)C2=O)c1 | 2.7 µM | 1.4 µM | 1.6 µM | 0.94 µM
16 | CCN1C(=O)S/C(=C\c2ccc(N)cc2)C1=O | 108 µM | 91 µM | 76 µM | 82 µM
17 | Nc1cccc(/C=C2\SC(=O)N(Cc3cccc(Cl)c3)C2=O)c1 | 250 µM | 195 µM | 164 µM | 211 µM
18 | N[C@@H](Cc1ccc(N(CCCl)CCCl)cc1)C(=O)O [MELPHALAN] | – | 3.5 µM | 3.6 µM | –
19 | Cc1ccc(CN2C(=O)S/C(=C\c3cccc(N)c3)C2=O)cc1 | 98 µM | > 250 µM | 158 µM | 176 µM

Row | Structure (SMILES) | IC50 (HeLa) | IC50 (CCRF-CEM) | IC50 (FM3A) | IC50 (L1210)
20 | C=C(Br)C(=O)Nc1ccc(/C=C2\SC(=O)N(Cc3ccccc3)C2=O)cc1 | 1 µM | 2.3 µM | 3 µM | 1.1 µM
21 | C=C(Br)C(=O)Nc1cccc(/C=C2\SC(=O)N(Cc3cccc(F)c3)C2=O)c1 | 2.7 µM | 0.69 µM | 0.69 µM | 0.59 µM
22 | Cc1ccc(CN2C(=O)S/C(=C\c3ccc(N)cc3)C2=O)cc1 | > 250 µM | > 250 µM | > 250 µM | 94 µM
23 | C=C(Br)C(=O)Nc1ccc(/C=C2\SC(=O)N(CC)C2=O)cc1 | 1.4 µM | 0.87 µM | 2.3 µM | 0.5 µM
24 | Nc1ccc(/C=C2\SC(=O)N(CCc3ccccc3)C2=O)cc1 | > 250 µM | > 250 µM | 215 µM | 217 µM
25 | C=C(Br)C(=O)Nc1cccc(/C=C2\SC(=O)N(Cc3cccc(Cl)c3)C2=O)c1 | 2.5 µM | 1.4 µM | 1.7 µM | 1.1 µM
26 | Nc1ccc(/C=C2\SC(=O)N(Cc3ccccc3)C2=O)cc1 | 46 µM | 42 µM | 24 µM | 38 µM
27 | Nc1cccc(/C=C2\SC(=O)N(Cc3ccc(F)cc3)C2=O)c1 | 86 µM | 87 µM | 140 µM | 142 µM
28 | C=C(Br)C(=O)Nc1ccc(/C=C2\SC(=O)N(Cc3cccc(Cl)c3)C2=O)cc1 | 8.9 µM | 3.7 µM | 6.1 µM | 3.4 µM
29 | Nc1cccc(/C=C2\SC(=O)N(CCc3ccccc3)C2=O)c1 | 250 µM | 106 µM | 68 µM | 142 µM
30 | CC(C)(C)c1ccc(CN2C(=O)S/C(=C\c3ccc(N)cc3)C2=O)cc1 | 53 µM | 66 µM | 80 µM | 94 µM
31 | Nc1ccc(/C=C2\SC(=O)N(Cc3ccc(C(F)(F)F)cc3)C2=O)cc1 | 96 µM | 32 µM | 134 µM | 6 µM
32 | Nc1ccc(/C=C2\SC(=O)N(Cc3ccc(Cl)cc3)C2=O)cc1 | 77 µM | 87 µM | 60 µM | 37 µM
33 | C=C(Br)C(=O)Nc1cccc(/C=C2\SC(=O)N(Cc3ccc(C)cc3)C2=O)c1 | 1.2 µM | 1.2 µM | 1 µM | 0.6 µM
34 | C=C(Br)C(=O)Nc1cccc(/C=C2\SC(=O)N(CCc3ccccc3)C2=O)c1 | 3.5 µM | 0.94 µM | 2.2 µM | 1.3 µM
35 | Nc1cccc(/C=C2\SC(=O)N(Cc3ccc(C(F)(F)F)cc3)C2=O)c1 | > 250 µM | > 250 µM | > 250 µM | > 250 µM
36 | C=C(Br)C(=O)Nc1ccc(/C=C2\SC(=O)N(Cc3ccc(C(C)(C)C)cc3)C2=O)cc1 | 2.7 µM | 0.83 µM | 4 µM | 1.6 µM
37 | C=C(Br)C(=O)Nc1ccc(/C=C2\SC(=O)N(C)C2=O)cc1 | 0.87 µM | 0.36 µM | 0.75 µM | 0.19 µM
38 | C=C(Br)C(=O)Nc1cccc(/C=C2\SC(=O)N(Cc3ccc(C(C)(C)C)cc3)C2=O)c1 | 2.8 µM | 3 µM | 5.2 µM | 3.2 µM
